Reference: PubChem BioAssay (NCI)
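96-well plates; 48 h exposure; 5 concentrations. Endpoints by linear interpolation between flanking doses. Not reached: highest tested concentration assigned. The concentration for 50% growth inhibition is given as GI50. Definition used: TGI = concentration required for complete inhibition of growth.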

Legend:
Experiment in all cases: inhibition of tumour cell growth, NCI panel, 48 h
[1] = system: A498 renal
[2] = system: HCC-2998 colon
[3] = system: HOP-62 NSCLC
[4] = system: HOP-92 NSCLC
[5] = system: M14 melanoma
[6] = system: RXF 393 renal
[7] = system: SNB-19 CNS
[8] = system: UACC-257 melanoma
[9] = system: BT-549 breast
[10] = system: MDA-MB-231 breast

Structure (SMILES)	TGI [1] [µM]	TGI [2] [µM]	TGI [3] [µM]	TGI [4] [µM]	TGI [5] [µM]	TGI [6] [µM]	TGI [7] [µM]	TGI [8] [µM]	GI50 [1] [µM]	GI50 [9] [µM]	TGI [9] [µM]	GI50 [3] [µM]	GI50 [4] [µM]	GI50 [5] [µM]	GI50 [10] [µM]	TGI [10] [µM]	GI50 [6] [µM]	GI50 [7] [µM]	GI50 [8] [µM]
COC(=O)[C@@]1(O)CC(C)C=C1C=O (some centres undefined)	> 100	> 100	> 100	> 100	> 100	42.9	> 100	> 100	–	–	–	–	–	–	–	–	–	–	–
CCCCCCCCC(O)C#CC(N)=O (centres undefined)	31	22.4	–	24.3	25.6	29.2	26.3	26.9	–	–	–	–	–	–	–	–	–	–	–
COC1=C2C[C@H](O)C(C)C[C@@]2(OC)OC1=O (some centres undefined)	> 100	> 100	> 100	> 100	> 100	> 100	> 100	> 100	–	–	–	–	–	–	–	–	–	–	–
CCO/C=C1\N=C(C(Cl)c2ccccc2)OC1=O (centres undefined)	> 100	> 100	> 100	> 100	> 100	> 100	> 100	> 100	–	–	–	–	–	–	–	–	–	–	–
O=c1oc(-c2ccccc2)cc2cccc(O)c12	48	–	40.9	61.6	> 100	> 70.9	> 100	> 100	21	17.5	59.1	19.5	16.8	> 80.9	29.2	> 85.7	24.8	30.6	> 71.9
CC(=O)OCc1ccc(O)c(C=O)c1	–	> 100	> 100	> 100	> 100	> 100	> 100	> 100	–	–	> 100	–	–	–	–	> 100	–	–	–
Cc1ccc(-c2cc(=O)c3cc(C)c(C)c(C(=O)O)c3o2)cc1	> 100	> 100	> 100	> 100	> 100	–	> 100	> 100	–	–	–	–	–	–	–	–	–	–	–
COc1ccc(OC)c(NCC#N)c1	> 100	> 100	> 100	> 100	> 100	> 100	> 100	> 100	–	–	–	–	–	–	–	–	–	–	–
COc1cc(C=O)c(-c2cc3c(cc2C2(C)OCCS2)OCO3)c(OC)c1OC (centres undefined)	23.9	31.2	47.1	90.3	16.1	46.9	168	43.4	–	–	–	–	–	–	–	–	–	–	–
Cc1ccc(C(=O)N2c3ccccc3N(C)n3cccc3C2CC(=O)O)cc1 (centres undefined)	> 100	> 100	> 100	> 100	> 100	> 100	> 100	> 100	–	–	–	–	–	–	–	–	–	–	–
CCOC(=O)[C@H]1CSC[C@@H](C(=O)OC)N1	> 100	> 100	> 100	–	> 100	> 100	> 100	> 100	–	–	–	–	–	–	–	–	–	–	–
O=C(O)C(C(=O)C(=O)C(C(=O)O)c1ccc(Cl)cc1)c1ccc(Cl)cc1 (centres undefined)	16.6	14.1	16.9	8.89	16.4	8.37	14.3	11.4	–	–	–	–	–	–	–	–	–	–	–
